The source of these data is patent US12202818B2, “Compounds and methods for CD73 modulation and indications therefor” (Opna Bio SA, priority 2020, dated 2025).

Experiment [1] deals with T1, Human CD73 (amino acid residues 27-549) (Homo sapiens, UniProt P21589).
T1 construct: Human CD73 (amino acid residues 27-549); His tag (N); made in house; host or cells: E. coli
T1 sequence (P21589 27-549): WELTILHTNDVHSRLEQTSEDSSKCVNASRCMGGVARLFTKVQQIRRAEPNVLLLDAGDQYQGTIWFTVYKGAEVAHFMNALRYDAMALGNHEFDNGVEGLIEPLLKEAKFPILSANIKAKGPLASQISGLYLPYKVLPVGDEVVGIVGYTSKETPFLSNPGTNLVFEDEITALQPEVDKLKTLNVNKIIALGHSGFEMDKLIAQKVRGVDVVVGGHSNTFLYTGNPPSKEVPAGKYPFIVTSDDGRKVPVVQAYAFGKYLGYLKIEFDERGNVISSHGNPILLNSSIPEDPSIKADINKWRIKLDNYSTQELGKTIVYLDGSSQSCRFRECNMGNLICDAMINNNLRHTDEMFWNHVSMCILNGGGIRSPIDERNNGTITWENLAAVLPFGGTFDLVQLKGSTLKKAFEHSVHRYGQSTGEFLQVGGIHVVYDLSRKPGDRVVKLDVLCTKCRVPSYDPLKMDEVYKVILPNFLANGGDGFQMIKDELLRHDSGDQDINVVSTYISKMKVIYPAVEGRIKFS
As to the kind of experiment: CD73 enzymatic assay (luciferase-based indirect assay, CellTiter-Glo). The experiment is classed as biochemical. Conditions: 0.4 nM CD73, 150 μM AMP, 1 hour at room temperature. In a few lines:
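N-His human CD73 (27-549) expressed in E. coli, 0.4 nM, incubated with 150 μM AMP and compound in 50 mM HEPES pH 7.4, 0.01% Tween-20, 1 h at RT. Remaining AMP read via CellTiter-Glo luminescence with 1 μM ATP after 30 min; IC50 from nonlinear regression of % inhibition.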
On the technique in general: ATP-based viability assays read luminescence as a measure of living cells.

In another experiment the target is T2, human CD73 (Homo sapiens, UniProt P21589).
T2 construct: expressed in transfected cells
T2 sequence (P21589 27-549): T1 sequence (P21589 27-549)
The experiment can be described thus: Inhibitor activity against CD73 in cell based assay (CD73 expressing CHO-K1 cells). Conditions: CHO-K1 cells expressing human CD73, 150 μM AMP, 4 hours of incubation; read-out: CHO-K1 CELL_VARIANT: CD73 IC50. The procedure, abridged:
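Stable human CD73 CHO-K1 cells, 1×10^4/well, exposed to an 8-point 1:3 compound series (top 10 μM, 0.2% DMSO) plus 150 μM AMP for 4 h. Remaining AMP in the supernatant was read by CellTiter-Glo 2.0 luminescence with 1 μM ATP after 30 min at room temperature. IC50 came from nonlinear regression of % inhibition against cell and media-only controls.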

Usually IC50 stands for the concentration that gives 50% inhibition.

Consider `Cc1c(-c2cc(F)nc(O[C@@H]3CCN(c4cn[nH]c(=O)c4Cl)C3)c2)cnn1CC1(C)COC1` [P-0151, (R)-4-chloro-5-(3-((6-fluoro-4-(5-methyl-1-((3-methyloxetan-3-yl)methyl)-1H-pyrazol-4-yl)pyridin-2-yl)oxy)pyrrolidin-l-yl)pyridazin-3(2H)-one], for which the IC50 (in experiment [1]; at human CD73) was 0.001 to 10 µM each time.

On to `Cc1nn(CC2CC2)c(C)c1-c1cc(F)nc(O[C@@H]2CCN(c3cn[nH]c(=O)c3Cl)C2)c1` [P-0152, (R)-4-chloro-5-(3-((4-(1-(cyclopropylmethyl)-3,5-dimethyl-1H-pyrazol-4-yl)-6-fluoropyridin-2-yl)oxy)pyrrolidin-1-yl)pyridazin-3(2H)-one], for which the IC50 (in experiment [1]; on human CD73) was 0.001 to 10 µM throughout.

As for `Cc1c(C)n(-c2cc(F)nc(O[C@@H]3CCN(c4cn[nH]c(=O)c4Cl)C3)c2)c2ccccc12` [P-0153, (R)-4-chloro-5-(3-((4-(2,3-dimethyl-1H-indol-1-yl)-6-fluoropyridin-2-yl)oxy)pyrrolidin-1-yl)pyridazin-3(2H)-one], the IC50 (in experiment [1]; on human CD73) was 0.001 to 10 µM each time.

With `Cc1nn(CC2(F)CNC2)c(C)c1-c1cc(F)nc(O[C@@H]2CCN(c3cn[nH]c(=O)c3Cl)C2)c1` [P-0154, (R)-4-chloro-5-(3-((6-fluoro-4-(1-((3-fluoroazetidin-3-yl)methyl)-3,5-dimethyl-1H-pyrazol-4-yl)pyridin-2-yl)oxy)pyrrolidin-1-yl)pyridazin-3(2H)-one], the IC50 (in experiment [1]; at human CD73) was 0.001 to 10 µM each time.

Turning to `Cn1ncc(Cl)c1-c1ccnc(O[C@@H]2CCN(c3cn[nH]c(=O)c3Cl)C2)c1` [P-0155, (R)-4-chloro-5-(3-((4-(4-chloro-1-methyl-1H-pyrazol-5-yl)pyridin-2-yl)oxy)pyrrolidin-1-yl)pyridazin-3(2H)-one], the IC50 (in experiment [1]; on human CD73) was 0.001 to 10 µM each time.

Take `Cc1nn(C)c(C)c1-c1cnnc(O[C@@H]2CCN(c3cn[nH]c(=O)c3Cl)C2)c1` [P-0156, (R)-4-chloro-5-(3-((5-(1,3,5-trimethyl-1H-pyrazol-4-yl)pyridazin-3-yl)oxy)pyrrolidin-1-yl)pyridazin-3(2H)-one]: the IC50 (in experiment [1]; on human CD73) was 0.001 to 10 µM each time.

On to `Cc1nn(C)c(C)c1-c1cc(O[C@@H]2CCN(c3cn[nH]c(=O)c3Cl)C2)cnn1` [P-0157, (R)-4-chloro-5-(3-((6-(1,3,5-trimethyl-1H-pyrazol-4-yl)pyridazin-4-yl)oxy)pyrrolidm-1-yl)pyridazin-3(2H)-one], for which the IC50 (in experiment [1]; on human CD73) was 0.001 to 10 µM in each case.

On to `Cc1noc(C)c1-c1cnnc(O[C@@H]2CCN(c3cn[nH]c(=O)c3Cl)C2)c1` [P-0158, (R)-4-chloro-5-(3-((5-(3,5-dimethylisoxazol-4-yl)pyridazin-3-yl)oxy)pyrrolidin-1-yl)pyridazin-3(2H)-one], for which the IC50 (in experiment [1]; at human CD73) was 0.001 to 10 µM throughout.

Regarding `Cc1nn(CCN2CCCC2)c(C)c1-c1cc(F)nc(O[C@@H]2CCN(c3cn[nH]c(=O)c3Cl)C2)c1` [P-0159, (R)-4-chloro-5-(3-((4-(3,5-dimethyl-1-(2-(pyrrolidin-1-yl)ethyl)-1H-pyrazol-4-yl)-6-fluoropyridin-2-yl)oxy)pyrrolidin-1-yl)pyridazin-3(2H)-one], the half-maximal inhibitory concentration (IC50) (in experiment [1]; on human CD73) was 0.001 to 10 µM in each case.

`Cc1nn(CCN2CCOCC2)c(C)c1-c1cc(F)nc(O[C@@H]2CCN(c3cn[nH]c(=O)c3Cl)C2)c1` [P-0160, (R)-4-chloro-5-(3-((4-(3,5-dimethyl-1-(2-morpholinoethyl)-1H-pyrazol-4-yl)-6-fluoropyridin-2-yl)oxy)pyrrolidin-1-yl)pyridazin-3(2H)-one]: the IC50 (in experiment [1]; at human CD73) was 0.001 to 10 µM each time.

Consider `Cc1nn(CCN(C)C)c(C)c1-c1cc(F)nc(O[C@@H]2CCN(c3cn[nH]c(=O)c3Cl)C2)c1` [P-0161, (R)-4-chloro-5-(3-((4-(1-(2-(dimethylamino)ethyl)-3,5-dimethyl-1H-pyrazol-4-yl)-6-fluoropyridin-2-yl)oxy)pyrrolidin-1-yl)pyridazin-3(2H)-one], for which the IC50 (in experiment [1]; at human CD73) was 0.001 to 10 µM each time.

In the case of `Cc1noc(C)c1-c1cncc(O[C@@H]2CCN(c3cn[nH]c(=O)c3Cl)C2)c1` [P-0162, (R)-4-chloro-5-(3-((5-(3,5-dimethylisoxazol-4-yl)pyridin-3-yl)oxy)pyrrolidin-1-yl)pyridazin-3(2H)-one], the IC50 (in experiment [1]; on human CD73) was 0.001 to 10 µM in each case.

In the case of `O=c1[nH]ncc(N2CC[C@@H](Oc3cncc(O[C@@H]4CCN(c5cn[nH]c(=O)c5Cl)C4)c3)C2)c1Cl` [P-0163, 5,5′-((3R,3′R)-(pyridine-3,5-diylbis(oxy))bis(pyrrolidine-3,1-diyl))bis(4-chloropyridazin-3(2H)-one)], the 50% inhibitory concentration (IC50) (in experiment [1]; at human CD73) was 0.001 to 10 µM throughout.

As to `CCCn1nc(C)c(-c2cc(F)nc(O[C@@H]3CCN(c4cn[nH]c(=O)c4)C3)c2)c1C` [P-0164, (R)-5-(3-((4-(3,5-dimethyl-1-propyl-1H-pyrazol-4-yl)-6-fluoropyridin-2-yl)oxy)pyrrolidin-1-yl)pyridazin-3(2H)-one], the IC50 (in experiment [1]; at human CD73) was 0.001 to 10 µM in each case.

Consider `CCCn1nc(C)c(-c2cc(F)nc(O[C@@H]3CCN(c4cn[nH]c(=O)c4Cl)C3)c2)c1C` [P-0165, (R)-4-chloro-5-(3-((4-(3,5-dimethyl-1-propyl-1H-pyrazol-4-yl)-6-fluoropyridin-2-yl)oxy)pyrrolidin-1-yl)pyridazin-3(2H)-one], for which the IC50 (in experiment [1]; on human CD73) was 0.001 to 10 µM each time.

Turning to `Cc1nn(CCC(F)(F)F)c(C)c1-c1cc(F)nc(O[C@@H]2CCN(c3cn[nH]c(=O)c3Cl)C2)c1` [P-0166, (R)-4-chloro-5-(3-((4-(3,5-dimethyl-1-(3,3,3-trifluoropropyl)-1H-pyrazol-4-yl)-6-fluoropyridin-2-yl)oxy)pyrrolidin-1-yl)pyridazin-3(2H)-one], the IC50 (in experiment [1]; at human CD73) was 0.001 to 10 µM throughout.

Regarding `Cc1nn(CC(F)(F)F)c(C)c1-c1cc(F)nc(O[C@@H]2CCN(c3cn[nH]c(=O)c3Cl)C2)c1` [P-0167, (R)-4-chloro-5-(3-((4-(3,5-dimethyl-1-(2,2,2-trifluoroethyl)-1H-pyrazol-4-yl)-6-fluoropyridin-2-yl)oxy)pyrrolidin-1-yl)pyridazin-3(2H)-one], the IC50 (in experiment [1]; at human CD73) was 0.001 to 10 µM each time.

On to `Cc1nn(C)c(C)c1-c1cncc(O[C@@H]2CCN(c3cn[nH]c(=O)c3Cl)C2)c1` [P-0168, (R)-4-chloro-5-(3-((5-(1,3,5-trimethyl-1H-pyrazol-4-yl)pyridin-3-yl)oxy)pyrrolidin-1-yl)pyridazin-3(2H)-one], for which the 50% inhibitory concentration (IC50) (in experiment [1]; at human CD73) was 0.001 to 10 µM each time.

For the compound `Cc1nn(CC(F)F)c(C)c1-c1cc(F)nc(O[C@@H]2CCN(c3cn[nH]c(=O)c3Cl)C2)c1` [P-0169, (R)-4-chloro-5-(3-((4-(1-(2,2-difluoroethyl)-3,5-dimethyl-1H-pyrazol-4-yl)-6-fluoropyridin-2-yl)oxy)pyrrolidin-1-yl)pyridazin-3(2H)-one], the IC50 (in experiment [1]; on human CD73) was 0.001 to 10 µM each time.
